Columns and labels:
MCAO rats [1] = assay: Cerebral infarct volume (TTC staining) in rat MCAO ischemia-reperfusion model; assay type: in vivo; details: for extent of cerebral infarction compared with the model group: 24 h, t-test versus model group, doses as in Table 2; for Percentage of cerebral infarction volume (%): 24 hours after MCAO ischemia, tail vein, single dose, n=10
[2] = system: platelet aggregation in rats; assay: ADP-induced platelet aggregation in platelet-rich plasma of rats after oral gavage; assay type: in vivo; details: for Maximum platelet aggregation rate (%): blood taken 3 hours after gavage, 20µM ADP, platelet-rich plasma, n=10; for platelet aggregation rate compared with the solvent control group: significance versus solvent control group, doses as in Table 3
Experimental: After oral gavage administration for 3 hours on the same day, blood was collected from the abdominal aorta to obtain platelet-rich plasma from each group. Platelet aggregation was induced by 20µM ADP, and the maximum platelet aggregation rate in platelet-rich plasma was determined by platelet aggregometer, to evaluate and compare the effects of platelet aggregation in rats.

[3] = Solubility test (Chinese Pharmacopoeia 2020 method); assay type: physicochemical
SD rats = assay: Repeated administration toxicity test in rats (14 days, tail vein); details: once daily for 14 consecutive days, n=10
[4] = Stability test (influence factor test, Chinese Pharmacopoeia 2020 General Chapter 9001); details: for Decomposition product butylphthalide %: HPLC; for appearance / main peak and butylphthalide content: 30 days under open high-temperature and light exposure
Experimental: An appropriate amount of each compound to be tested was taken, and the influence factor test was conducted according to the General Chapter 9001 of Part 4 of the 2020 Edition of the Chinese Pharmacopoeia. The appearance of the compounds and the content of the main degradation product, butylphthalide, were detected respectively on day 0 and day 30 for each compound. The detection of butylphthalide was performed using high performance liquid chromatography, with a column packed with octadecylsilane-bonded silica gel, and a mobile phase of methanol-water (65:35).

MCAO rats [5] = assay: Neurological deficit scoring (Longa method) in rat MCAO ischemia-reperfusion stroke model; details: for neurological symptoms of rats compared with the model group: 24 h postoperatively, t-test versus model group, doses as in Table 1; for Score 2h: neurological deficit score 2 h after ischemia (administration started at reperfusion after 2 h); for Score 2h / Score 24h: tail vein, single dose, n=10; for Score 24h: neurological deficit score 24 h post-surgery
Experimental: Administration was initiated upon reperfusion after 2 hours of ischemia. The model and the sham operation group were given an equal volume 5% glucose injection solution via tail vein injection, while the other groups were injected with the corresponding drugs via tail vein, each with a single dose. […] Performing modeling surgery: The rat MCAO model was established with reference to the Longa intraluminal filament occlusion method. Nylon monofilament was cut into 2 cm lengths, the tip was dipped into a tiny amount of molten paraffin, after cooling, the ends of the nylon threads were completely wrapped for later use. The rats were completely anesthetized with 3% sodium pentobarbital (30 mg/kg), and placed supine, and secured on a surgical board. The cervical skin was prepared and disinfected, a 2-cm mid line incision was made. The left common carotid artery was bluntly isolated, and the external and internal carotid arteries were dissected free along the common carotid artery. The distal ends of the common carotid artery and the external carotid artery were ligated, and the internal carotid artery was occluded using hemostatic forceps. A small arteriotomy was made in the common carotid artery and the prepared nylon monofilament was inserted through the opening. The wax-coated tip was inserted into the common carotid artery and advanced into the internal carotid artery, the hemostat was released, and the advancement of the wax tip was stopped when it was 13-16 mm from the opening. The filament was secured, and the cervical incision was closed. After 2 h of occlusion, rats were anesthetized and the filament was withdrawn. In the sham operation group, rats were completely anesthetized with only 3% sodium pentobarbital. After cervical skin preparation and incision, the common carotid artery was bluntly isolated, and the wound immediately closed, without filament insertion. […] Neurological deficit scoring: scoring time: before modeling, 2 h after ischemia, and 24 h post-surgery, all surviving animals were scored in a blinded manner using a modified neurological deficit score. The scoring criteria of Longa's method were as follows: 0: normal neurological function; 1: mild neurological deficit: when suspended by the tail, the animal's left forelimb was flexed; 2: moderate neurological deficit: when placed on a smooth surface, the animal circles to the left side while walking; 3: moderate neurological deficit: at rest, the animal leans to the left side; 4: depressed consciousness with no spontaneous limb movements; 5: unresponsive to stimuli or death. […] Result analysis: The t-test was used to compare the behavioral test scores between groups.

[6] = as stated for CN1523003A, background art; cited from earlier work
[7] = as stated for CN1523003A, background art; cited from earlier work; remark: listed apart in the source

CC12CC3CC(C)(C1)CC(N)(C3)C2.CCCCC(O)c1ccccc1C(=O)O (stereo not shown) [Compound 4, 3,5-dimethyladamantane-1-amine 2-(1-hydroxypentyl)benzoate salt]
extent of cerebral infarction compared with the model group (MCAO rats [1]): significantly reduced | Percentage of cerebral infarction volume (%) (MCAO rats [1]; 0.016 mmol/kg): 25.1±4.41 % | Maximum platelet aggregation rate (%) ([2]; ig 200 mg/kg): 38.10±6.24 % | Solubility ([3]; medium Water, about 0.01 g sample in 9.0 ml): Completely soluble | Solubility ([3]; medium pH4.5, about 0.01 g sample in 9.0 ml): Completely soluble | Solubility ([3]; medium pH6.8, about 0.01 g sample in 9.0 ml): Completely soluble | Mortality rate (%) (SD rats; high dose 105 mg/kg): 0% | Mortality rate (%) (SD rats; low dose 15 mg/kg): 0% | Mortality rate (%) (SD rats; medium dose 45 mg/kg): 0% | Property ([4]; 0 day): White powder | Decomposition product butylphthalide % ([4]; 0 day): 0.107% | appearance [4]: remains unchanged | main peak and butylphthalide content [4]: minimal variation | Property ([4]; high humidity RH92.5%, 30 days): White powder | Decomposition product butylphthalide % ([4]; high humidity RH92.5%, 30 days): 0.258% | neurological symptoms of rats compared with the model group (MCAO rats [5]): highly significant | Score 2h (MCAO rats [5]; group dose 0.016 mmol/kg): 2.7±1.16 | Score 24h (MCAO rats [5]; 0.016 mmol/kg): 1.50±0.53

NC12CC3CC(CC(C3)C1)C2 [Amantadine, amantadine, reference compound]
extent of cerebral infarction compared with the model group (MCAO rats [1]): no significant inhibitory effect | Percentage of cerebral infarction volume (%) (MCAO rats [1]; 0.016 mmol/kg): 35.1±4.56% | neurological symptoms of rats compared with the model group (MCAO rats [5]): no significant improvement | Score 2h (MCAO rats [5]; group dose 0.016 mmol/kg): 2.5±1.08 | Score 24h (MCAO rats [5]; 0.016 mmol/kg): 3.00±0.82

CCCCC1OC(=O)c2ccccc21 (stereo not shown) [Butylphthalide, reference compound]
extent of cerebral infarction compared with the model group (MCAO rats [1]): significantly reduced | Percentage of cerebral infarction volume (%) (MCAO rats [1]; 0.053 mmol/kg): 31.0±7.50 % | Maximum platelet aggregation rate (%) ([2]; ig 200 mg/kg): 57.50±9.05 % | platelet aggregation rate compared with the solvent control group [2]: significantly different | neurological symptoms of rats compared with the model group (MCAO rats [5]): significantly improved | Score 2h (MCAO rats [5]; group dose 0.053 mmol/kg): 2.8±1.03 | Score 24h (MCAO rats [5]; 0.053 mmol/kg): 2.10±0.99

CCCCC(O)c1ccccc1C(=O)[O-].[K+] (stereo not shown) [Potassium salt, 2-(1-hydroxypentyl)benzoic acid potassium salt, reference compound]
extent of cerebral infarction compared with the model group (MCAO rats [1]): significantly reduced | Percentage of cerebral infarction volume (%) (MCAO rats [1]; 0.016 mmol/kg): 29.7±5.72 % | Maximum platelet aggregation rate (%) ([2]; ig 200 mg/kg): 48.50±8.29 % | platelet aggregation rate compared with the solvent control group [2]: highly significantly different | hygroscopicity [6]: highly hygroscopic | toxicity [7]: greater toxicity | Property ([4]; 0 day): White powder | Decomposition product butylphthalide % ([4]; 0 day): 0.090% | Property ([4]; high humidity RH92.5%, 30 days): Partially deliquescent and liquefied | Decomposition product butylphthalide % ([4]; high humidity RH92.5%, 30 days): 25.687% | neurological symptoms of rats compared with the model group (MCAO rats [5]): significantly improved | Score 2h (MCAO rats [5]; group dose 0.016 mmol/kg): 2.9±0.99 | Score 24h (MCAO rats [5]; 0.016 mmol/kg): 1.90±0.74

Bicyclo[2,2,1]heptane-2-amine 2-(1-hydroxypentyl)benzoate salt [Compound 16]
Maximum platelet aggregation rate (%) ([2]; ig 200 mg/kg): 44.10±5.15 %

CCCCC(O)c1ccccc1C(=O)O.NC12CC3CC(CC(C3)C1)C2 (stereo not shown) [Compound 1, amantadine 2-(1-hydroxypentyl)benzoate salt]
extent of cerebral infarction compared with the model group (MCAO rats [1]): significantly reduced | Percentage of cerebral infarction volume (%) (MCAO rats [1]; 0.016 mmol/kg): 25.7±5.29 % | Maximum platelet aggregation rate (%) ([2]; ig 200 mg/kg): 34.60±9.57 % | Mortality rate (%) (SD rats; high dose 105 mg/kg): 0% | Mortality rate (%) (SD rats; low dose 15 mg/kg): 0% | Mortality rate (%) (SD rats; medium dose 45 mg/kg): 0% | Property ([4]; 0 day): White powder | Decomposition product butylphthalide % ([4]; 0 day): 0.114% | appearance [4]: remains unchanged | main peak and butylphthalide content [4]: minimal variation | Property ([4]; high humidity RH92.5%, 30 days): White powder | Decomposition product butylphthalide % ([4]; high humidity RH92.5%, 30 days): 0.298% | neurological symptoms of rats compared with the model group (MCAO rats [5]): highly significant | Score 2h (MCAO rats [5]; group dose 0.016 mmol/kg): 2.8±1.14 | Score 24h (MCAO rats [5]; 0.016 mmol/kg): 1.60±0.84

CC(C)NC(C)C.CCCCC(O)c1ccccc1C(=O)O (stereo not shown) [Diisopropylamine salt, 2-(1-hydroxypentyl)benzoic acid diisopropylamine salt, reference compound]
Property ([4]; 0 day): White powder | Decomposition product butylphthalide % ([4]; 0 day): 0.087% | Property ([4]; high humidity RH92.5%, 30 days): White powder | Decomposition product butylphthalide % ([4]; high humidity RH92.5%, 30 days): 8.025%

CCCCC(O)c1ccccc1C(=O)O.NCc1ccccc1 (stereo not shown) [benzylamine salt]
toxicity [7]: highly toxic

CCCCC(O)c1ccccc1C(=O)O.c1ccc(CNCCNCc2ccccc2)cc1 [N'N-dibenzylethylenediamine salt, reference compound]
Maximum platelet aggregation rate (%) ([2]; ig 200 mg/kg): 46.6±10.78 % | platelet aggregation rate compared with the solvent control group [2]: highly significantly different | toxicity [7]: lower toxicity

CCCCC(O)c1ccccc1C(=O)O.N[C@@H]1[C@@H]2C[C@@H]3C[C@H]1C[C@@](O)(C3)C2 (stereo not drawn) [Compound 10, trans-1-hydroxyadamantan-4-amine 2-(1-hydroxypentyl)benzoate salt]
extent of cerebral infarction compared with the model group (MCAO rats [1]): significantly reduced | Percentage of cerebral infarction volume (%) (MCAO rats [1]; 0.016 mmol/kg): 25.8±4.52 % | Maximum platelet aggregation rate (%) ([2]; ig 200 mg/kg): 38.20±12.25 % | neurological symptoms of rats compared with the model group (MCAO rats [5]): highly significant | Score 2h (MCAO rats [5]; group dose 0.016 mmol/kg): 2.9±1.52 | Score 24h (MCAO rats [5]; 0.016 mmol/kg): 1.61±1.07

CCCCC(O)c1ccccc1C(=O)O.NC12CC3CC(C1)C(F)C(C3)C2 (stereo not shown) [Compound 7, 4-fluoroadamantane-1-amine 2-(1-hydroxypentyl)benzoate salt]
Maximum platelet aggregation rate (%) ([2]; ig 200 mg/kg): 37.90±12.60 %

CC1CC1N.CCCCC(O)c1ccccc1C(=O)O (stereo not shown) [Compound 15, 2-methylcyclopropane-1-amine 2-(1-hydroxypentyl)benzoate salt]
Maximum platelet aggregation rate (%) ([2]; ig 200 mg/kg): 41.10±6.45 %

CCCC12CC3CC(CC(N)(C3)C1)C2.CCCCC(O)c1ccccc1C(=O)O (stereo not shown) [Compound 6, 3-n-propyladamantane-1-amine 2-(1-hydroxypentyl)benzoate salt]
Maximum platelet aggregation rate (%) ([2]; ig 200 mg/kg): 40.30±12.26 %

CC(C)(C)N.CCCCC(O)c1ccccc1C(=O)O (stereo not shown) [Tert-butylamine salt, 2-(1-hydroxypentyl)benzoic acid tert-butylamine salt, reference compound]
toxicity [7]: highly toxic | Property ([4]; 0 day): White powder | Decomposition product butylphthalide % ([4]; 0 day): 0.041% | Property ([4]; high humidity RH92.5%, 30 days): White powder | Decomposition product butylphthalide % ([4]; high humidity RH92.5%, 30 days): 10.214%

CC1C2CC3CC(C2)CC1(N)C3.CCCCC(O)c1ccccc1C(=O)O (stereo not shown) [Compound 3, 2-methyladamantan-1-amine 2-(1-hydroxypentyl)benzoate salt]
Maximum platelet aggregation rate (%) ([2]; ig 200 mg/kg): 37.50±9.42 %

CCCCC(O)c1ccccc1C(=O)O.NC1CCC(O)CC1 (stereo not shown) [Compound 13, 4-hydroxycyclohexan-1-amine 2-(1-hydroxypentyl)benzoate salt]
Maximum platelet aggregation rate (%) ([2]; ig 200 mg/kg): 42.10±5.99 %

CC(=O)Oc1ccccc1C(=O)O [Aspirin, reference compound]
Maximum platelet aggregation rate (%) ([2]; ig 100 mg/kg): 27.00±6.48 % | platelet aggregation rate compared with the solvent control group [2]: highly significantly different

From EP4685128A1, “NOVEL 2-(1-HYDROXYPENTYL) BENZOIC ACID CYCLOALKYL AMINE SALT” (priority 2023, dated 2024)
